Measured values published in patent publication US9833431B2, “Pharmaceutical combinations for the treatment of cancer” (Pitney Pharmaceuticals Pty Limited, priority 2013, dated 2017).
Values joined by “and” are separate entries in the source; they are usually repeats but may differ in a detail not shown here. Identical values can stand only once. “Also recorded” adds a separate entry of the source.

Columns and labels:
[1] = system: PET; assay: SRB cytotoxicity assay, PET cells; format: cell-based, human; conditions: 72 h
Description: (§1) All cell lines described herein were purchased from ATCC. […] Control cultures were treated with ethanol alone.

[2] = system: SW-872 (Liposarcoma); assay: SRB cytotoxicity assay, SW-872 cells; format: cell-based; conditions: Homo sapiens, SW872
Description: as §1

[3] = system: Hep3B; assay: SRB cytotoxicity assay, Hep3B cells; format: cell-based, human; conditions: for cytotoxic effect of MPL alone: Hep3B cells
Description: as §1

[4] = system: LNCaP; assay: SRB cytotoxicity assay, LNCaP cells; format: cell-based, human; conditions: 72 h
Description: as §1

[5] = system: HEK; assay: SRB cytotoxicity assay, HEK cells; format: cell-based; conditions: Homo sapiens, HEK293, immortalised, nephritic, 72 h
Description: as §1

[6] = system: HT-29 5m11; assay: SRB cytotoxicity assay, HT-29 5m11 cells; format: cell-based; conditions: Homo sapiens, read-out: LC50 (the source's name)
Description: as §1

[7] = system: 28 malignant cell lines; assay: SRB cytotoxicity assay, summary over malignant cell lines; format: cell-based; conditions: all 28 malignant cell lines tested, with the exception of CFPAC-1 and SKOV-3; summary of Table 3; read-out: IC50 proliferation
Description: as §1

[8] = system: C170; assay: SRB cytotoxicity assay, C170 cells; format: cell-based
Description: as §1

[9] = system: CHO; assay: SRB cytotoxicity assay, CHO cells; format: cell-based; conditions: Cricetulus griseus, immortalised, ovarian, 72 h
Description: as §1

[10] = system: Human Fetal Astrocytes; assay: SRB cytotoxicity assay, human fetal astrocytes; format: cell-based; conditions: Astrocyte, non-malignant, glial, 72 h
Description: as §1

[11] = system: A2780; assay: SRB cytotoxicity / proliferation assay, A2780 cells; conditions: for Mpl Alone, Mpl (x/X) Inhibition: A2780 Ovarian, 72 h, x=events, X=experiments
Description: (§2) Cells were seeded in 96-well plates (2,000-3,000 cells/well) and culture overnight prior to treatment with MPL. Control cultures were treated with ethanol alone.
(§3) Cells were seeded in 96-well plates (2,000-3,000 cells/well), treated with the indicated compound(s) for 72 h, fixed, washed and stained with 100 μl of 0.4% (w/v) SRB dissolved in 1% acetic acid. Unbound dye was removed by five washes with 1% acetic acid before air-drying.
Cell viability was conducted according to standard Trypan Blue method. Cell proliferation was assessed using the sulforhodamine B (SRB) assay. For viability experiments, cells were seeded in 6 well plates, whereas for proliferation assays cells were grown in 96 well plates. Following over-night attachment, cells were treated with the intended drug at various concentrations either alone or in combination with monepantel (MPL) for 72 h. Parallel to this, cells treated with MPL alone were also deployed for comparative purposes. Following incubation for 72 h in a standard cell culture incubator, effect of mono and combined drug treatments on cell viability and/or cell proliferation was assessed through using Trypan Blue or SRB assays respectively.
(§4) For viability assay, at the end of treatment period, cells were washed with PBS, trypsinized and counted using Trypan blue and hemocytometer. For the SRB assay cells were fixed, washed and stained with 100 μl of 0.4% (w/v) SRB dissolved in 1% acetic acid. Unbound dye was removed by five washes with 1% acetic acid before air drying. […] Monepantel (gift by Novartis, Basel, Switzerland) was dissolved in 100% ethanol and then diluted with the cell culture media.

[12] = dosage of 1000 mg of MPL per kg of body weight per 24 hours; mammals; cited from earlier work
[13] = system: YOU; assay: SRB cytotoxicity assay, YOU cells; format: cell-based, human; conditions: 72 h
Description: as §1

[14] = in vivo; cited from earlier work
[15] = system: PC-3; assay: SRB cytotoxicity assay, PC-3 cells; format: cell-based; conditions: Homo sapiens, PC-3, malignant, prostatic, 72 h
Description: as §1

[16] = system: 1A9; assay: SRB cytotoxicity assay, 1A9 cells; format: cell-based; conditions: Homo sapiens, 1A9, malignant, ovarian, 72 h
Description: as §1

[17] = system: HUVEC, human fetal astrocytes and HOSE cells; assay: SRB cytotoxicity assay, summary over early/primary passage cells; format: cell-based; conditions: summary of Table 3, read-out: IC50 proliferation
Description: as §1

[18] = system: IGROV-1; assay: SRB cytotoxicity assay, IGROV-1 cells; format: cell-based; conditions: Homo sapiens, IGROV-1, malignant, ovarian, 72 h
Description: as §1

[19] = system: CFPAC-1; assay: SRB cytotoxicity assay, CFPAC-1 cells
Description: as §2
(§5) Cytotoxicity was assessed using the sulforhodamine B (SRB) assay and reported as half maximal inhibitory concentration (IC50; Table 3). Cells were seeded in 96-well plates (2,000-3,000 cells/well), treated with the indicated compound(s) for 72 h, fixed, washed and stained with 100 μl of 0.4% (w/v) SRB dissolved in 1% acetic acid. Unbound dye was removed by five washes with 1% acetic acid before air-drying.
(§6) MPL (5 μM) and combination drugs were applied for 72 h unless indicated.

[20] = system: SKOV-1; assay: SRB cytotoxicity assay, SKOV-1 cells
Description: as §3, §6

[21] = system: HUVEC; assay: SRB cytotoxicity assay, HUVEC; format: cell-based; conditions: Homo sapiens, non-malignant, endothelial, 72 h
Description: as §1

[22] = system: U251; assay: SRB cytotoxicity assay, U251 cells; format: cell-based; conditions: Homo sapiens, U-251, U251, malignant, glial, 72 h
Description: as §1

[23] = system: HOSE; assay: SRB cytotoxicity assay, HOSE non-malignant control cells; conditions: for Mpl Alone, Mpl (x/X) Inhibition: 5 μM MPL, x=events, X=experiments; for cytotoxicity of MPL alone: HOSE control cells, Table 6 footnote 3
Description: All cell lines described herein were purchased from ATCC. Cells were seeded in 96-well plates (2,000-3,000 cells/well) and culture overnight prior to treatment with MPL. Control cultures were treated with ethanol alone.
as §3
Corresponding cytotoxicity of the major metabolite MPL-SO2 has also been tested where indicated. […] HUVEC, human fetal astrocytes and HOSE cells are non-transformed, non-immortalized and non-malignant, freshly isolated/low passage number cell populations, from apparently healthy non-diseased tissue. These healthy cell populations were included in the experimental series as controls for non-specific toxicity. Both MPL and MPL-SO2 were suspended in ethanol and applied in final concentrations of 0.5 to 1% ethanol in the respective culture media.
(§7) In order to evaluate the effect of MPL on the in vitro efficacy of an established drug was evaluated using cell viability and cell proliferation assays. Cell viability was conducted according to standard Trypan Blue method. Cell proliferation was assessed using the sulforhodamine B (SRB) assay. For viability experiments, cells were seeded in 6 well plates, whereas for proliferation assays cells were grown in 96 well plates. Following over-night attachment, cells were treated with the intended drug at various concentrations either alone or in combination with monepantel (MPL) for 72 h. Parallel to this, cells treated with MPL alone were also deployed for comparative purposes. Following incubation for 72 h in a standard cell culture incubator, effect of mono and combined drug treatments on cell viability and/or cell proliferation was assessed through using Trypan Blue or SRB assays respectively.
For viability assay, at the end of treatment period, cells were washed with PBS, trypsinized and counted using Trypan blue and hemocytometer. For the SRB assay cells were fixed, washed and stained with 100 μl of 0.4% (w/v) SRB dissolved in 1% acetic acid. Unbound dye was removed by five washes with 1% acetic acid before air drying. […] Monepantel (gift by Novartis, Basel, Switzerland) was dissolved in 100% ethanol and then diluted with the cell culture media. Other agents employed in the study were purchased either from Sigma Australia or Sapphire Australia, prepared and preserved for cell culture use according to supplier instructions.
as §6

[24] = system: immortalized cell lines and the CFPAC-1 and SKOV-3 cell lines; assay: SRB cytotoxicity assay, summary over immortalized lines; format: cell-based; conditions: all immortalized cell lines and CFPAC-1 and SKOV-3; summary of Table 3; read-out: IC50 proliferation
Description: as §1

[25] = system: U87; assay: SRB cytotoxicity assay, U87 cells; format: cell-based, human; conditions: 72 h
Description: as §1

[26] = system: LN-18; assay: SRB cytotoxicity assay, LN-18 cells; format: cell-based, human; conditions: 72 h
Description: as §1

[27] = system: OVCAR-3; assay: SRB cytotoxicity / proliferation assay, OVCAR-3 cells; conditions: for significant cytotoxic effect of MPL alone: OVCAR-3 cells
Description: as §2, §5, §7, §4, §6

[28] = system: REN; assay: SRB cytotoxicity assay, REN cells; format: cell-based, human; conditions: 72 h
Description: as §1

[29] = system: HT-29; assay: cells; format: cell-based
Description: as §1

SMILES: C[C@](C#N)(COc1cc(C#N)ccc1C(F)(F)F)NC(=O)c1ccc(SC(F)(F)F)cc1 [MPL, N-[(1S)-1-cyano-2-(5-cyano-2-trifluoromethyl-phenoxy)-1-methyl-ethyl]-4-trifluoromethylsulfanyl-benzamide]
- IC50 ([1]; Homo sapiens, PET, malignant, mesothelial, SRB): 26 µM
- Mpl Alone, Mpl (x/X) Inhibition ([1]; PET Mesothelioma, 5 μM MPL, x=events, X=experiments): 2/2
- IC50 ([2]; SW-872 (Liposarcoma), malignant, mesenchymal, SRB, 72 h): 14.7 µM
- EC50 ([2]; SW-872 cells): 14.7 µM
- Mpl Alone, Mpl (x/X) Inhibition ([3]; Hep3B Hepatoma, 5 μM MPL, 48 h, x=events, X=experiments): 12/12
- cytotoxic effect of MPL alone ([3]; MPL 2.5 μM, 48 h): does not display a cytotoxic effect; also recorded: does not exert a cytotoxic effect
- cytotoxic effect of MPL alone ([3]; MPL 5 μM, 48 h): significant cytotoxic effect and potent effect and 12 of 12
- IC50 ([3]; Homo sapiens, Hep3B, malignant, hepatic, SRB, 72 h): 15.8 µM
- IC50 ([4]; Homo sapiens, LNCaP, malignant, prostatic, SRB): 7.3 µM
- Mpl Alone, Mpl (x/X) Inhibition ([4]; LNCAP Prostate, 5 μM MPL, x=events, X=experiments): 1/1
- IC50 [5]: 34.6 ± 0.9 µM
- CC50 [6]: 10.4 µM
- IC50 [7]: 2 to 25 µM
- significant cytotoxic effect of MPL alone ([8]; C170 cells, MPL (5 μM)): one of two experiments
- IC50 ([8]; Homo sapiens, C170, malignant, colorectal, SRB, 72 h): ~20 µM
- IC50 [9]: 34.6 ± 0.8 µM
- IC50 [10]: 85.6 ± 2.7 µM
- Mpl Alone, Mpl (x/X) Inhibition ([11]; 5 μM MPL, Table 6): 6/6^2
- Mpl Alone, Mpl (x/X) Inhibition ([11]; 5 μM MPL, Table 7): (4/4)
- Mpl Alone, Mpl (x/X) Inhibition ([11]; 5 or 10 μM MPL, Table 8 lower panel): (5/5)^
- Mpl Alone, Mpl (x/X) Inhibition ([11]; 5 or 10 μM MPL, Table 8 upper panel): (3/3)
- IC50 ([11]; Homo sapiens, A2780, 72 h): 10 ± 3.8 µM
- clinical tolerance [12]: well tolerated
- IC50 ([13]; Homo sapiens, YOU, malignant, mesothelial, SRB): 23 µM
- Mpl Alone, Mpl (x/X) Inhibition ([13]; YOU Mesothelioma, 5 μM MPL, x=events, X=experiments): 2/2
- single-dose toxicity [14]: > 2000 mg per kg of body weight
- IC50 [15]: 21 µM
- IC50 [16]: 2.5 ± 0.5 µM
- IC50 [17]: > 85 µM
- IC50 [18]: 4.4 ± 0.3 µM
- Mpl Alone, Mpl (x/X) Inhibition ([19]; CFPAC-1 Pancreatoma, 5 μM MPL, 72 h, x=events, X=experiments): 1/10
- experiments with significant cytotoxic effect of MPL alone ([19]; CFPAC-1 cells, MPL (5 μM)): 1 of 10
- experiments with cytotoxic effect of MPL alone ([19]; CFPAC-1 cells, MPL (10 μM), 72 h, data not shown): 4 of 9
- IC50 ([19]; Homo sapiens, CFPAC-1, 72 h): 30.1 ± 5.5 µM
- A) Single treatment, one symbol per experiment ([20]; SKOV-1, MPL (5 μM), 72 h): ✓✓✓
- significant cytotoxic effect of MPL alone ([20]; SKOV-1 cells, MPL 5 μM, 3/3 experiments): significant cytotoxic effect
- IC50 [21]: 87 µM
- IC50 [22]: 17 ± 1.2 µM
- Mpl Alone, Mpl (x/X) Inhibition ([23]; HOSE (Ovarian) control, Table 6): 2/9^3
- Mpl Alone, Mpl (x/X) Inhibition ([23]; HOSE (Ovarian), 72 h, Table 7): (0/4)
- cytotoxic effect of MPL alone ([23]; HOSE cells, FIG. 22 Rows 2 (fluorouracil) and 5 (paclitaxel)): small but significant cytotoxic effect
- significant cytotoxic effect of MPL alone ([23]; HOSE cells, MPL 2.5 μM, 1/1 experiments): did not induce a significant cytotoxic effect
- significant cytotoxic effect of MPL alone ([23]; HOSE cells, MPL 5 μM, 3/3 experiments): did not induce a significant cytotoxic effect
- cytotoxicity of MPL alone ([23]; flutamide experiment): 3%
- cytotoxicity of MPL alone ([23]; oxaliplatin experiment): 5%
- IC50 ([23]; Homo sapiens, 72 h): > 100 µM
- IC50 [24]: 12 to 35 µM
- IC50 ([25]; Homo sapiens, U-87 MG, U87, malignant, glial, SRB): 18 ± 7.1 µM
- Mpl Alone, Mpl (x/X) Inhibition ([25]; U87 Glioblastoma, 5 μM MPL, x=events, X=experiments): 1/1
- IC50 ([26]; Homo sapiens, LN-18, malignant, glial, SRB): 9.4 ± 0.8 µM
- Mpl Alone, Mpl (x/X) Inhibition ([26]; LN18 Glioblastoma, 5 μM MPL, x=number of events, X=number of experiments): 2/2
- IC50 ([27]; Homo sapiens, OVCAR-3, 72 h): 6.3 ± 0.8 µM
- Mpl Alone, Mpl (x/X) Inhibition ([27]; OVCAR-3, 5 μM MPL, 72 h, x=events, X=experiments, Table 7): (3/3)
- Mpl Alone, Mpl (x/X) Inhibition ([27]; OVCAR-3, 5 or 10 μM MPL, 72 h, Table 8 lower panel, same MPL control for serotonin and wortmannin): (2/2)^2
- Mpl Alone, Mpl (x/X) Inhibition ([27]; OVCAR-3, 5 or 10 μM MPL, 72 h, Table 8 upper panel, x=events, X=experiments): (5/5)
- A) Single treatment, one symbol per experiment ([27]; OVCAR-3, MPL (5 μM), 72 h): ✓✓✓✓✓✓
- Mpl Alone, Mpl (x/X) Inhibition ([27]; OVCAR-3 Ovarian, 5 μM MPL, 72 h, x=events, X=experiments, Table 6): 4/4
- significant cytotoxic effect of MPL alone ([27]; MPL 2.5 μM, 1/1 experiments): but not 2.5 μM alone
- significant cytotoxic effect of MPL alone ([27]; MPL 5 μM, 6/6 experiments): significant cytotoxic effect
- IC50 ([28]; Homo sapiens, REN, malignant, mesothelial, SRB): 2.5 ± 0.2 µM
- Mpl Alone, Mpl (x/X) Inhibition ([28]; REN Mesothelioma, 5 μM MPL, x=events, X=experiments): 2/2
- significant cytotoxic effect of MPL alone ([29]; HT29 cells, MPL (5 μM), two experiments): no significant cytotoxic effect
- CC50 ([29]; Homo sapiens, HT-29, HT29 cells, read-out: LC50 (the source's name)): 5.9 µM
- IC50 ([29]; Homo sapiens, HT-29, malignant, colorectal, SRB, 72 h): 5.9 ± 0.2 µM
